Source: patent publication US10947213B1 (Merck Patent GmbH, priority 2015, dated 2021)
Structures can show the parent of a compound that is named as a salt.

These compounds were tested against T1, TLR7/NFKb HEK cells (Homo sapiens, UniProt Q9NYK1) (assay: HEK Cell Assay (TLR7/NFKb reporter, Steady-Glo luciferase readout)). Details: 30 min compound preincubation, then R*48 agonist for 5 hours, read-out: Potency.
T1 construct: expressed in transfected cells; host or cells: HEK cells (TLR7/NFKb reporter line)
T1 sequence (Q9NYK1 27-1049): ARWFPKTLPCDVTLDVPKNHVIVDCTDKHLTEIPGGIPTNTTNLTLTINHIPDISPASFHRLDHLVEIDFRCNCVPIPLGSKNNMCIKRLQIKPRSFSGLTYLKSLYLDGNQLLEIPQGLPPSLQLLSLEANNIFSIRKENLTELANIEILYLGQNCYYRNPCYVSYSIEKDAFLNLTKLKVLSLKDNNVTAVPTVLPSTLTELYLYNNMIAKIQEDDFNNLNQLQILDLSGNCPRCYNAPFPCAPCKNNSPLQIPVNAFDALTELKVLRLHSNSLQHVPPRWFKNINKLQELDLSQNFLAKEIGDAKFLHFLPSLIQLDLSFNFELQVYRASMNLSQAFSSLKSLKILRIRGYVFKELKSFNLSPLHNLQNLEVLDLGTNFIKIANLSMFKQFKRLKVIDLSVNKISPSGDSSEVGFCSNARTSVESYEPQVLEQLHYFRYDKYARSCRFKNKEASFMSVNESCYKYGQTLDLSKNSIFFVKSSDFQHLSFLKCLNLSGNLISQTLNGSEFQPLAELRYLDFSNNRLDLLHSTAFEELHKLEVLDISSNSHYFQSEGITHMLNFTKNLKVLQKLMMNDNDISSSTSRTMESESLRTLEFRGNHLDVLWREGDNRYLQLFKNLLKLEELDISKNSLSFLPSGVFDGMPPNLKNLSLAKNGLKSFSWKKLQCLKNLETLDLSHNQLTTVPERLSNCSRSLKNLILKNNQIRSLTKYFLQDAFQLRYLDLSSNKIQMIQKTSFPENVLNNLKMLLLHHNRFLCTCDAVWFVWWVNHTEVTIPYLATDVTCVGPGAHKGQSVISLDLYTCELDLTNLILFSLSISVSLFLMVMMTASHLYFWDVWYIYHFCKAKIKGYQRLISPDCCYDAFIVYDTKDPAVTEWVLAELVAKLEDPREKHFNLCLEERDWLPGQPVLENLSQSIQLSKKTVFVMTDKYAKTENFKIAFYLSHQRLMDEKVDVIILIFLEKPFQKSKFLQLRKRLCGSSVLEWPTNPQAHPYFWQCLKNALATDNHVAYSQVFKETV
Format: cell-based
Summary of the method: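 Steady-Glo luminescence after 5 h stimulation with R*48 agonist, following 30 min compound preincubation. Assay run in HEK cells carrying a TLR7/NFKb luciferase reporter, plated at 5000 cells/well and grown 24 h at 37° C (10% CO2) before treatment.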

| SMILES | IC50 |
| --- | --- |
| C[C@H]1C[C@@H](NC(=O)[C@@H](N)CO)CN(c2ccc(C(F)(F)F)c3ncccc23)C1 [Compound 476] | < 1000 nM |
| C[C@H]1C[C@@H](NC(=O)NCCN(C)C)CN(c2ccc(C(F)(F)F)c3ncccc23)C1 [Compound 477, 1-(2-Dimethylamino-ethyl)-3-[(3R,5S)-5-methyl-1-(8-trifluoromethyl-quinolin-5-yl)-piperidin-3-yl]-urea] | < 1000 nM |
| C[C@H]1C[C@@H](NC(=O)CC2(O)CCCCC2)CN(c2ccc(C(F)(F)F)c3ncccc23)C1 [Compound 484, 2-(1-Hydroxy-cyclohexyl)-N-[(3R,5S)-5-methyl-1-(8-trifluoromethyl-quinolin-5-yl)-piperidin-3-yl]-acetamide] | < 1000 nM |
| Cc1c(F)cc(N2C[C@@H](C)C[C@@H](N)C2)c2cccnc12 [Compound 488, (3R,5S)-1-(7-Fluoro-8-methyl-quinolin-5-yl)-5-methyl-piperidin-3-ylamine hydrochloride] | < 1000 nM |
| Cc1cc(F)c(N2C[C@@H](C)C[C@@H](N)C2)c2cccnc12 [Compound 489, (3R,5S)-1-(6-Fluoro-8-methyl-quinolin-5-yl)-5-methyl-piperidin-3-ylamine] | < 1000 nM |
| N#Cc1ccc(N2C[C@@H](N)C[C@@H](F)C2)c2nccnc12 [Compound 501, 8-((3S,5R)-3-Amino-5-fluoro-piperidin-1-yl)-quinoxaline-5-carbonitrile hydrochloride] | > 10000 nM |
| CN1CCN(CC(=O)N[C@@H]2C[C@H](F)CN(c3ccc(C#N)c4nccnc34)C2)CC1 [Compound 502, N-[(3R,5S)-1-(8-Cyano-quinoxalin-5-yl)-5-fluoro-piperidin-3-yl]-2-(4-methyl-piperazin-1-yl)-acetamide] | 1000 to 10000 nM |
| CC(C)(N)CC(=O)NC1CN(c2ccc(C#N)c3nccnc23)CC(F)(F)C1 (stereo not shown) [Compound 505, 3-Amino-N-[1-(8-cyano-quinoxalin-5-yl)-5,5-difluoro-piperidin-3-yl]-3-methyl-butyramide hydrochloride] | 1000 to 10000 nM |
| CC(C(=O)NC1CN(c2ccc(C#N)c3nccnc23)CC(F)(F)C1)N1CCOCC1 (stereo not shown) [Compound 509, N-[1-(8-Cyano-quinoxalin-5-yl)-5,5-difluoro-piperidin-3-yl]-2-morpholin-4-yl-propionamide] | > 10000 nM |
| NC1CN(c2ccc(C(F)(F)F)c3ncccc23)CC(F)(F)C1 (stereo not shown) [Compound 510, 5,5-Difluoro-1-(8-trifluoromethyl-quinolin-5-yl)-piperidin-3-ylamine] | < 1000 nM |
| CN1CCN(CC(=O)NC2CN(c3ccc(C(F)(F)F)c4ncccc34)CC(F)(F)C2)CC1 (stereo not shown) [Compound 511, N-[5,5-Difluoro-1-(8-trifluoromethyl-quinolin-5-yl)-piperidin-3-yl]-2-(4-methyl-piperazin-1-yl)-acetamide] | < 1000 nM |
| O=C(NC1CN(c2ccc(C(F)(F)F)c3ncccc23)CC(F)(F)C1)C(O)C1CC1 (stereo not shown) [Compound 513, 2-Cyclopropyl-N-[5,5-difluoro-1-(8-trifluoromethyl-quinolin-5-yl)-piperidin-3-yl]-2-hydroxy-acetamide] | 1000 to 10000 nM |
| CC(C(=O)N[C@@H]1C[C@H](C)CN(c2ccc(C(F)(F)F)c3ncccc23)C1)N1CCN(C)CC1 (stereo partly drawn) [Compound 516, 2-(4-Methyl-piperazin-1-yl)-N-[(3R,5S)-5-methyl-1-(8-trifluoromethyl-quinolin-5-yl)-piperidin-3-yl]-propionamide] | < 1000 nM |
| CC(=O)N[C@@H]1C[C@H](C)CN(c2ccc(C(F)(F)F)c3ncccc23)C1 [Compound 517, N-[(3R,5S)-5-Methyl-1-(8-trifluoromethyl-quinolin-5-yl)-piperidin-3-yl]-acetamide] | < 1000 nM |
| C[C@H]1C[C@@H](NC(=O)NC2CC2)CN(c2ccc(C(F)(F)F)c3ncccc23)C1 [Compound 518, 1-Cyclopropyl-3-[(3R,5S)-5-methyl-1-(8-trifluoromethyl-quinolin-5-yl)-piperidin-3-yl]-urea] | < 1000 nM |
| C[C@H]1C[C@@H](NC(=O)C(C2CC2)N(C)C)CN(c2ccc(C(F)(F)F)c3ncccc23)C1 (stereo partly drawn) [Compound 519, 2-Cyclopropyl-2-dimethylamino-N-[(3R,5S)-5-methyl-1-(8-trifluoromethyl-quinolin-5-yl)-piperidin-3-yl]-acetamide] | < 1000 nM |
| N#Cc1ccc(N2CCC(F)C(N)C2)c2nccnc12 (stereo not shown) [Compound 524, 8-(3-Amino-4-fluoro-piperidin-1-yl)-quinoxaline-5-carbonitrile hydrochloride] | 1000 to 10000 nM |
| Cc1cnc2c(N3C[C@@H](C)C[C@@H](N)C3)ccc(C#N)c2n1 [Compound 525, 8-((3R,5S)-3-Amino-5-methyl-piperidin-1-yl)-3-methyl-quinoxaline-5-carbonitrile] | < 1000 nM |
| C[C@H]1C[C@@H](NC(=O)[C@H](C)N(C)C)CN(c2ccc(C(F)(F)F)c3ncccc23)C1 [Compound 526, (S)-2-Dimethylamino-N-[(3R,5S)-5-methyl-1-(8-trifluoromethyl-quinolin-5-yl)-piperidin-3-yl]-propionamide] | < 1000 nM |

The remaining lines, values ahead:

| IC50 | SMILES |
| --- | --- |
| 1000 to 10000 nM | C[C@H]1C[C@@H](NC(=O)CNS(C)(=O)=O)CN(c2ccc(C(F)(F)F)c3ncccc23)C1 [Compound 474, 2-Methanesulfonylamino-N-[(3R,5S)-5-methyl-1-(8-trifluoromethyl-quinolin-5-yl)-piperidin-3-yl]-acetamide] |
| < 1000 nM | C[C@H]1C[C@@H](NC(=O)CC2(N)CCCCC2)CN(c2ccc(C(F)(F)F)c3ncccc23)C1 [Compound 483, 2-(1-Amino-cyclohexyl)-N-[(3R,5S)-5-methyl-1-(8-trifluoromethyl-quinolin-5-yl)-piperidin-3-yl]-acetamide] |
| < 1000 nM | C[C@H]1C[C@@H](NC(=O)CC(C)(C)O)CN(c2ccc(C(F)(F)F)c3ncccc23)C1 [Compound 485] |
| 1000 to 10000 nM | N#Cc1ccc(N2C[C@H](N)C[C@H](F)C2)c2nccnc12 [Compound 499, 8-((3R,5S)-3-Amino-5-fluoro-piperidin-1-yl)-quinoxaline-5-carbonitrile hydrochloride] |
| < 1000 nM | CN1CCN(CC(=O)NC2CN(c3ccc(C#N)c4nccnc34)CC(F)(F)C2)CC1 (stereo not shown) [Compound 503, N-[1-(8-Cyano-quinoxalin-5-yl)-5,5-difluoro-piperidin-3-yl]-2-(4-methyl-piperazin-1-yl)-acetamide] |
| 1000 to 10000 nM | CC(Cl)C(=O)NC1CN(c2ccc(C#N)c3nccnc23)CC(F)(F)C1 (stereo not shown) [Compound 506, 2-Chloro-N-[1-(8-cyano-quinoxalin-5-yl)-5,5-difluoro-piperidin-3-yl]-propionamide] |
| 1000 to 10000 nM | O=C(CN1CCOCC1)NC1CN(c2ccc(C(F)(F)F)c3ncccc23)CC(F)(F)C1 (stereo not shown) [Compound 512, N-[5,5-Difluoro-1-(8-trifluoromethyl-quinolin-5-yl)-piperidin-3-yl]-2-morpholin-4-yl-acetamide] |
| < 1000 nM | C[C@H]1C[C@@H](NC(=O)CC(C)(C)N)CN(c2ccc(C(F)(F)F)c3ncccc23)C1 [Compound 514, 3-Amino-3-methyl-N-[(3R,5S)-5-methyl-1-(8-trifluoromethyl-quinolin-5-yl)-piperidin-3-yl]-butyramide] |
| < 1000 nM | C[C@H]1C[C@@H](NC(=O)C(O)C2CC2)CN(c2ccc(C(F)(F)F)c3ncccc23)C1 (stereo partly drawn) [Compound 515, 2-Cyclopropyl-2-hydroxy-N-[(3R,5S)-5-methyl-1-(8-trifluoromethyl-quinolin-5-yl)-piperidin-3-yl]-acetamide] |
